From US20020045780A1, “Biologically active spermidine analogues, pharmaceutical compositions and methods of treatment” (priority 1997, published 2002)
Where a name gives a salt, the structure may show the parent alone. Read-outs that look alike come from different tables or passages of the source.

How the values were obtained:
L1210 cells [1] = test: L1210 growth inhibition, IC50 determination; type: cell-based, murine; conditions: Mus musculus
Description: Murine L1210 leukemia cells (ATCC CCL 219) were maintained in logarithmic growth in RPMI-1640 medium containing 10% fetal calf serum or a semi-synthetic equivalent, NuSerum, 2% HEPES-MOPS buffer and 1 mM aminoguanidine.

[2] = system: polyamine transport apparatus; test: Competitive uptake determination: inhibition of [3H]spermidine transport into L1210 cells; type: cell-based, murine; conditions: analogue inhibition of spermidine transport
Outline: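 Analogues competed with [3H]spermidine for uptake into L1210 cells. Values are Ki, derived from Lineweaver–Burk analysis as competitive inhibition with respect to spermidine.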

L1210 cells [3] = test: Polyamine pool analysis in L1210 cells; type: cell-based, murine; conditions: for activity at 100 µM / activity at 500 µM / activity at 15 µM / activity at 75 µM: Mus musculus, L1210, 48 h, % of untreated control; for Analogue: intracellular amount
Outline: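 Cells were exposed to each analogue for 48 h at two concentrations. Washed pellets were extracted with 0.6 N HClO4 (1 ml/10^7 cells), and polyamines were quantified by HPLC of dansyl derivatives.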

[4] = system: ornithine decarboxylase (ODC); test: ODC activity in treated L1210 cells; type: cell-based, murine; conditions: L1210, 1 μM at 4 hours
Outline: (§1)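 L1210 cells treated with triamines; ODC activity measured at 4 h and AdoMetDC at 6 h as ^14CO2 released from [^14C]-carboxyl-labeled L-ornithine (ODC) or S-adenosyl-L-methionine (AdoMetDC). Untreated cells served as controls and DEHSPM-treated cells as positive controls.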

[5] = system: S-adenosylmethionine decarboxylase (AdoMetDC); test: AdoMetDC activity in treated L1210 cells; type: cell-based, murine; conditions: L1210, 1 μM at 6 hours
Outline: as §1

[6] = system: spermidine/spermine acetyltransferase (SSAT); test: SSAT activity in treated L1210 cells; type: cell-based, murine; conditions: L1210, 10 μM at 48 hours (triamine analogues)
Description: Spermidine/spermine N^1-acetyltransferase activity was based on quantitation of [^14C]-N^1-acetylspermidine formed by acetylation of SPD with [^14C] acetyl coenzyme A according to the method of Libby et al [Biochem. Pharmacol., Vol. 38, supra]. Cells treated with DENSPM were positive controls.

L1210 cells [7] = test: Metabolic transformation of polyamine analogues by L1210 cells; type: in vitro ADME, murine; conditions: 48 hours
Description: The cells were washed twice with cold RPMI-1640, and the pellet was treated with 0.6 N HClO4 (1 ml/10^7 cells). Polyamine contents of the perchloric acid extracts were quantitated by HPLC of the DANSYL derivatives [Bergeron et al, J. Med. Chem., Vol. 37, supra].

[8] = L1210, 48 h, L1210, 48 hour exposure, read-out: IC50 48 hour
[9] = L1210, 96 h, L1210, 96 hour exposure, read-out: IC50 96 hour

| Structure (SMILES) | IC50 (L1210 cells [1]; [8]) [µM] | IC50 (L1210 cells [1]; [9]) [µM] | Ki [2] [µM] | activity at 100 µM (L1210 cells [3]; 100 μM, read-out: Put) [%] | activity at 100 µM (L1210 cells [3]; 100 μM, read-out: Spd) [%] | activity at 100 µM (L1210 cells [3]; 100 μM, read-out: Spm) [%] | activity at 500 µM (L1210 cells [3]; 500 μM, read-out: Put) [%] | activity at 500 µM (L1210 cells [3]; 500 μM, read-out: Spd) [%] | activity at 500 µM (L1210 cells [3]; 500 μM, read-out: Spm) [%] | Analogue (L1210 cells [3]; 100 μM, 48 hours) [nmol/10^6 cells] | Analogue (L1210 cells [3]; 500 μM, 48 hours) [nmol/10^6 cells] | ODC activity, percent of untreated control [4] | AdoMetDC activity, percent of untreated control [5] | SSAT activity, percent of untreated control [6] | Parent drug as % of total drug in the cell (L1210 cells [7]; 100 μM analogue) [%] | Parent drug in L1210 cells (L1210 cells [7]; 100 μM analogue) [pmols/10^6] | N-Monodealkylation (result in words) (L1210 cells [7]; 100 μM analogue) | other results |
| --- | --- | --- | --- | --- | --- | --- | --- | --- | --- | --- | --- | --- | --- | --- | --- | --- | --- | --- |
| CCCNCCCNCCCCN [MPSPD(N1), N^1-Propylspermidine Trihydrochloride] | > 100 | 20 to 35 | 3 | 0 | 25 | 90 | 0 | 15 | 72 | 3.97 | 4.95 | 18% of untreated control | 56% of untreated control | 1200% of untreated control | 93.9 | 4238 | – | – |
| CNCCCCNCCCCNC [DMHSPD, N^1,N^9-Dimethylhomospermidine Trihydrochloride] | > 100 | 0.9 | 5.5 | 0 | 3 | 106 | 0 | 0 | 106 | 5.51 | 5.85 | 20% of untreated control | 86% of untreated control | 510% of untreated control | 100 | 5500 | no N-demethylation | – |
| CCCNCCCCCNCCCCCNCCC [DP(5,5), 4,10,16-Triazanonadecane Trihydrochloride] | > 100 | 6 | 87 | 59 | 73 | 97 | 51 | 69 | 103 | 0.86 | 1.33 | 73% of untreated control | 123% of untreated control | 90% of untreated control | – | – | – | PUT reduced by (L1210 cells [3]; 500 μM, 48 hours): 50%; SPD reduced by (L1210 cells [3]; 500 μM, 48 hours): 30%; Parent drug as % of total drug in the cell (L1210 cells [7]; 500 μM analogue): 100%; Parent drug in L1210 cells (L1210 cells [7]; 500 μM analogue): 1300 pmols/10^6; N-Monodealkylation (result in words) (L1210 cells [7]; 500 μM analogue, Trihydrochloride): no metabolic products were found; N-Monodealkylation (result in words) (L1210 cells [7]; 500 μM analogue, listed as DP-[6,5], Trihydrochloride): no N-depropylation |
| CNCCCCNCCCNC [DMSPD, N^1,N^8-Dimethylspermidine Trihydrochloride] | > 100 | 1.5 to 1.8 | 5.1 | 0 | 5 | 58 | 0 | 0 | 54 | 4.96 | 4.89 | – | 68% of untreated control | 270% of untreated control | 100 | 5000 | no N-demethylation | ODC activity, percent of untreated control ([4]; Trihydrochloride): 22% of untreated control |
| CNCCCNCCCNC [DMNSPD, N^1,N^7-Dimethylnorspermidine Trihydrochloride] | > 100 | 3.5 to 6 | 60 | 0 | 9 | 58 | 0 | 6 to 15 | < 50 | 5.00 | 5.51 | 17% of untreated control | 41% of untreated control | 250% of untreated control | 100 | 5000 | no N-demethylation | – |
| CNCCCCCNCCCCCNC [DM(5,5), 2,8,14-Triazapentadecane Trihydrochloride] | 15 | 0.4 | 133 | – | – | – | – | – | – | – | – | 105% of untreated control | 97% of untreated control | 90% of untreated control | – | – | – | activity at 15 µM (L1210 cells [3]; 15 μM, read-out: Put): 0%; activity at 15 µM (L1210 cells [3]; 15 μM, read-out: Spd): 33%; activity at 15 µM (L1210 cells [3]; 15 μM, read-out: Spm): 115%; activity at 75 µM (L1210 cells [3]; 75 μM, read-out: Put): 0%; activity at 75 µM (L1210 cells [3]; 75 μM, read-out: Spd): 20%; activity at 75 µM (L1210 cells [3]; 75 μM, read-out: Spm): 101%; Analogue (L1210 cells [3]; 15 μM, 48 hours): 2.56 nmol/10^6 cells; Analogue (L1210 cells [3]; 75 μM, 48 hours): 3.61 nmol/10^6 cells; N-Monodealkylation (result in words) (L1210 cells [7]; 15 μM analogue): no N-demethylation; Parent drug as % of total drug in the cell (L1210 cells [7]; 15 μM analogue): 100%; Parent drug in L1210 cells (L1210 cells [7]; 15 μM analogue): 2560 pmols/10^6 |
| CCCNCCCNCCCNCCC [DPNSPD, N^1,N^7-Dipropylnorspermidine Trihydrochloride] | > 100 | 60 | 125 | 70 | 76 | 96 | 68 | 71 | 102 | 0.49 | 1.24 | 100% of untreated control | 99% of untreated control | 220% of untreated control | 57.7 | 404 | – | – |
